Assays:
[1] = test system: MDA-MB-231 HA-TrkA tumours; experiment: Xenograft of MDA-MB-231 HA-TrkA in SCID mice, tumour volume (Experiment 1); assay type: in vivo; details: 3 injections every 3 days from day 14; CEP-701 10 mg/kg intraperitoneal, siEphA2 7.5 microg/mouse close to the tumour
Protocol: FIG. 9: A study of the inhibition of TrkA and EphA2 on tumour development in vivo. The tumours were developed without any intervention for 14 days and then subjected to 3 injections (every 3 days, black arrows) of solvent (control), CEP-701 (10 mg/kg), siEphA2 (7.5 microg/mouse) or CEP-701 (10 mg/kg) and siEphA2 (7.5 microg/mouse). The experiments were stopped 31 days after the first injection of the treatment for ethical considerations after the death of the control mice. A) The tumour volumes were evaluated by measuring the length (;) and the width (w) and then calculating the volume using the formula π/6×l×W×(l+w)/2; the Mann and Whitney test was carried out between the control group and CEP-701 (a), between the control groups and siEphA2 (b), between the control groups and CEP-701+siEphA2 (c), and between the groups siEphA2 and CEP-701+siEphA2 (d)*, P<0.05; **, P<0.01; ns: not significant. B) Study of the inhibition of the expression of receptors by siRNA on the overall survival of SCID mice. […] The tumour volumes were evaluated by measuring the length (l) and width (w) and then calculating the volume using the formula π/6×l×W×(l+w)/2. […] Significance was measured using the log-rank test (P=0.0022). […]
Experiment 1: the mice used were six-week old SCID females. […] The tumour volume was measured according to the following formula: π/6×length×width×(width+length)/2. […]

Src = experiment: Western blot of Src phosphorylation in MDA-MB-231 cells; assay type: cell-based
Protocol: (§1) FIG. 8: A study of the role of TrkA and EphA2 in the activation of proteins Akt and Src. Cells MDA-MB-231 were respectively treated with a TrkA inhibitor (K252a), an anti-EphA2 siRNA (siEphA2), an inhibitor of PI3-K (LY294002) and an inhibitor of Src (SKI-1).
(§2) A and D. Cells MDA-MB-231 HA-TrkA were treated with proNGF N.C. […] The phosphorylation of Akt and Src was determined by using phospho-specific antibodies. The equal charge was verified using Akt and Src antibodies.
(§3) C and F. The phosphorylation of Akt and Src was determined in the total lysates coming from cells MDA-MB-231 transfected with siEphA2 and treated for 30 minutes with proNGF N.C. (C) or NGF (F).
(§4) After treatment, the cells were lysed (lysis buffer: 40 mM HEPES pH 7.5; 1 mM EDTA pH 8.0; 120 mM NaCl; 10 mM NaPPi; 50 mM NaF; 1.5 mM Na3VO4; 1% Triton X 100; 0.1% SDS; 1 mM PMSF; 10% glycerol and 1/100 th of protease inhibitor cocktail (Sigma) (20 min; 4° C.)). The lysates were recovered and clarified by centrifugation (12,000 g; 10 min; 4° C.). The supernatant was then stored at −80° C. until use. The protein extracts were diluted to 2 μg·μL−1 in a Laemmli 1× buffer (7 min; 100° C.) then deposited and separated on SDS-PAGE (concentration gel 3.6% acrylamide and separation gel 7.5% to 10% acrylamide (thickness 1 mm); 180 V; 10 min then 200 V constant; until output of the migration front). The proteins separated by SDS-PAGE were transferred according to the semi-dry transfer method (buffer: 48 mM Tris base, 39 mM glycine, 1.64 mM SDS, 20% methanol (v/v); 14 V; 15 min per gel) or liquid (buffer: 25 mM Tris base and 192 mM glycine; 15% methanol (v/v); 100 V; 30 min) on nitrocellulose membranes (0.45 μm; Whatman; Germany) or PVDF (0.45 μm; Immobilon P; Millipore; France). The PVDF membrane was “activated” beforehand (methanol; 10 min; 20° C.). The membranes were then saturated (TBS-T; 5% BSA; 1 h; 20° C.) then incubated (16 h; 4° C.) with the chosen primary antibody. […] The membranes were placed in an image analyser (LAS 4000; Fuji) connected to a computer which allowed image generation (software Image Reader LAS 4000).
(§5) The antibody against EphA2 was sc-924 (Santa Cruz), the antibody against sortilin was BD Bioscience 612101, the antibody against TrkA was sc 14024 (Santa Cruz), the antibody against HA was MMS-101R (Covance), the antibody against Akt was Cell Signaling 4691, the antibody against phospho-Akt (Ser 473) was Cell Signaling 9271, the antibody against Src was Cell Signaling 2109 (WB), the antibody against PhosphoSrc (Tyr416) was Cell Signaling 2105 and the antibody against actin was Sigma A2066.
(§6) Proteins Akt and Src were both involved in the pro-invasive effect of proNGF. In order to identify the role of TrkA and EphA2 in the activation of proteins Akt and Src, cells MDA-MB-231 were treated respectively with a TrkA inhibitor (K252a), an anti-EphA2 siRNA (siEphA2) the sequence of which is presented in table 1, a PI3-K inhibitor (LY294002) (the activation of Akt in effect underlies that of PI3-K) and an inhibitor of Src (SKI-1).

[2] = test system: tumours xenografted with cells MDA-MB-231 overexpressing TrkA; details: previously demonstrated, ref (34); cited from earlier work
Akt = experiment: Western blot of Akt phosphorylation in MDA-MB-231 cells; assay type: cell-based; details: for effect on Akt activation induced by proNGF: proNGF N.C. 30 min, 10 nM K252a, 15 μM LY294002, 50 nM SKI-1 or siEphA2
Protocol: as §1, §2, §3, §4, §5, §6

[3] = NGF 30 min, 10 nM K252a or siEphA2

SMILES	tumour volume / growth of xenografted tumours vs control [1]	effect on Src phosphorylation induced by NGF (Src; [3])	growth of xenografted tumours [2]	effect on Akt phosphorylation induced by NGF (Akt; [3])	effect on Akt activation induced by proNGF (Akt)	effect on Src activation induced by proNGF (Src; proNGF N.C. 30 min, 10 nM K252a, 15 μM LY294002, 50 nM SKI-1 or siEphA2)
C[C@]12O[C@H](C[C@]1(O)CO)n1c3ccccc3c3c4c(c5c6ccccc6n2c5c31)CNC4=O [CEP-701, reference compound]	slightly, but not significantly, reduced	–	–	–	–	–
COC(=O)[C@@]1(O)C[C@H]2O[C@]1(C)n1c3ccccc3c3c4c(c5c6ccccc6n2c5c31)C(=O)NC4 [K252a, reference compound]	–	inhibited this activation	reduces the growth of tumours	inhibited this activation	abolished the activation of Akt	–
COc1cc2ncnc(Nc3ccc(Oc4ccccc4)cc3)c2cc1OC [SKI-1, reference compound]	–	–	–	–	does not affect the phosphorylation of Akt	inhibition of Src

From patent US20170258871A1, “COMBINED USE OF A TRKA INHIBITOR AND AN EPHA2 INHIBITOR FOR USING IN THE TREATMENT OF SOLID CANCERS, AND METHOD FOR THE PROGNOSIS OF SURVIVAL OF A PATIENT WHO HAS A SOLID CANCER” (UNIVERSITE DES SCIENCES ET TECHNOLOGIES DE LILLE, priority 2014, published 2017)
